# Laboratory results as given in patent US20140023650A1, “Methods of Treating and/or Preventing Cell Proliferation Disorders with IL-17 Antagonists” (INSTITUT MEDICAL DE LA SANTE ET DE LA RECHERCHE MEDICALE, priority 2010, published 2014).
# How the values were obtained:
# [1] = test system: B cell clones; test: Cell viability of B cell clones (propidium iodide uptake, flow cytometry); type: cell-based, human; conditions: doxorubicin 300 nM, 96 h, no antibodies
# Method: FIG. 4: Autocrine production of IL-17 and BAFF protects B cell clones from doxorubicin-mediated cell death. (A) B cell clones secrete IL-17 and BAFF. B104 human B lymphoma cells and B cell clones DN1#1, DN1#2, DN1#3, DN1#4, DN2#5 and DN2#6 (see FIG. 3, above) were seeded at 10^5 cell/mL in medium alone and maintained in culture for 5 days. At day 5, IL-17 and BAFF concentration in cell culture supernatants was determined by ELISA. (B-1 to B-6) IL-17 and BAFF neutralizing antibodies induce B cell clone apoptosis and increase doxorubicin-induced apoptosis. […] Viability was assessed by propridium iodide uptake and flow cytometry analysis. […] B104 human B lymphoma cell line, either non-treated (NT) or pre-treated for 24 h in the presence of CpG2006 (CpG, 2.5 μg/mL) or IL-17 (1 ng/mL) and BAFF (100 ng/mL) as indicated, as well as clones DN1#1, DN1#2, DN1#3, DN1#4, DN2#5 and DN2#6 were treated or not with doxorubicin (300 nM) for 6 h and then p53, p21 and actin protein expression was assessed by immunoblotting. […]
# FIG. 8: Neutralizing antibodies to IL-17, BAFF, IL-6, and IL-10 induce apoptosis and sensitize B cell clones to chemotherapy (doxorubicin). […] Viability was assessed by propridium iodide uptake and flow cytometry analysis.
# Cell viability was assessed by propidium iodide (Sigma) uptake. Data were acquired on a FACSCalibur (BD Biosciences) and were analyzed with Flowio software (TreeStar).
# [2] = test system: patients with Rheumatoid Arthritis; conditions: cited from earlier work
# [3] = test system: MCF7; test: CD24/CD44 flow cytometry (cancer stem cells), MCF7; type: cell-based, human; conditions: MCF7 upon IL-17 exposure; ~0% untreated (FIG. 17C)
# Method: (§1) FIG. 17: IL-17 induces Epithelial to Mesenchymal Transition (EMT) in well differentiated and non-metastatic MCF7 breast cancer cells which increases MCF7 cancer cell migration, invasion and sternness. MCF7 cells were untreated (NT) or treated TGFβ (8 ng/mL) or IL-17 (10 ng/mL) for 9 days. (A) IL-17 (but not TGFβ) induces EMT characterized by loss of epithelial marker E-Cadherin (which, in color, fluoresces in green) and gain of mesenchymal marker Vimentin (which, in color, fluoresces in red) as assessed by immunofluorescence. (B) IL-17 enhances migratory (black bars) and invasive (white bars) abilities of MCF7 cancer cells as assessed in Boyden chamber assays. (C-1 to C-3) IL-17 increases the number of CD24^low CD44^high stem cells in MCF7 cancer cells. Flow cytometry assay showing CD24 and CD44 expression in untreated (NT) and IL-17-treated MCF7 cells (IL-17). Decreased CD24 and increased CD44 expression is indicative of cancer stem cells. Red box indicates the cancer stem cell population.
# Expression of human IL-17R (FAB177P, R&D system), CD24 (BD Pharmingen) and CD44 (BD Pharmingen) was determined by flow cytometry on a FACSCalibur flow cytometer (BD Biosciences) and analyzed using FlowJo software (Tree star). The antibodies were used at 1/25, 1/100 and 1/100 respectively.
# [4] = test system: MCF10A; test: CD24/CD44 flow cytometry (stem cells), MCF10A; type: cell-based, human; conditions: MCF10A upon IL-17 exposure; ~16% untreated (FIG. 16D)
# Method: FIG. 16: IL-17 induces Epithelial to Mesenchymal Transition (EMT) via Twist-1 upregulation in mammary epithelial cells which increases cell migration, invasion and stemness. Human immortalized mammary epithelial cells (MCF10A) cells were untreated (NT) or treated with TNFα (100 ng/mL), TGF (8 ng/mL) or IL-17 (10 ng/mL) for 9 days. (A) MCF10A cells were first transduced using shRNA lentiviral constructs targeting the LUCIFERASE gene (shCt), AICDA gene (shAICDA) or TWIST1 gene (shTWIST1) mRNA and then treated with cytokines as indicated above. IL-17 (but no TNFα or TGFβ) induces EMT in ShCt and ShAICDA MCF10A characterized by loss of epithelial marker E-Cadherin (which, in color, fluoresces in green) and gain of mesenchymal marker Vimentin (which, in color, fluoresces in red) as assessed by immunofluorescence. […] (B) IL-17 (but no TNFα or TGFβ) induces EMT characterized by loss of epithelial markers E-Cadherin, α-Catenin and Occludin and gain of mesenchymal markers N-Cadherin and Vimentin as assessed by immunobloting. […] (C) IL-17 enhances migratory (black bars) and invasive (white bars) abilities of MCF10A cells as assessed in Boyden chamber assays. […]
# Expression of human IL-17R (FAB177P, R&D system), CD24 (BD Pharmingen) and CD44 (BD Pharmingen) was determined by flow cytometry on a FACSCalibur flow cytometer (BD Biosciences) and analyzed using FlowJo software (Tree star). […]
# [5] = test system: MCF7 breast cancer cells; test: Boyden chamber migration and invasion assays, MCF7; type: cell-based, human; conditions: MCF7, IL-17 10 ng/mL, stimulated (FIG. 17B)
# From the text: as §1, with “MCF7 cells were untreated (NT) or treated TGFβ (8 ng/mL) or IL-17 (10 ng/mL) for 9 days.” left out
# For transwell migration assay, 5·10^4 cells were plated in the top chamber with the non-coated membrane (24-well insert; pore size, […]; BD Biosciences). […] Cells that reached the lower chamber were stained with Giemsa and counted. Total number of migrating/invading cell was calculated by analyzing 5 fields per well in two independent experiments, that is 10 fields per condition.
# [6] = test system: MCF10A; test: Transwell migration and Matrigel invasion assays, MCF10A; type: cell-based, human; conditions: for increase in cell invasion / increase in cell migration: TNFα 100 ng/mL or TGFβ 8 ng/mL, 9 days
# Method: FIG. 16: IL-17 induces Epithelial to Mesenchymal Transition (EMT) via Twist-1 upregulation in mammary epithelial cells which increases cell migration, invasion and stemness. Human immortalized mammary epithelial cells (MCF10A) cells were untreated (NT) or treated with TNFα (100 ng/mL), TGF (8 ng/mL) or IL-17 (10 ng/mL) for 9 days. (A) MCF10A cells were first transduced using shRNA lentiviral constructs targeting the LUCIFERASE gene (shCt), AICDA gene (shAICDA) or TWIST1 gene (shTWIST1) mRNA and then treated with cytokines as indicated above. IL-17 (but no TNFα or TGFβ) induces EMT in ShCt and ShAICDA MCF10A characterized by loss of epithelial marker E-Cadherin (which, in color, fluoresces in green) and gain of mesenchymal marker Vimentin (which, in color, fluoresces in red) as assessed by immunofluorescence. […] (B) IL-17 (but no TNFα or TGFβ) induces EMT characterized by loss of epithelial markers E-Cadherin, α-Catenin and Occludin and gain of mesenchymal markers N-Cadherin and Vimentin as assessed by immunobloting. Actin was used as a loading control. (C) IL-17 enhances migratory (black bars) and invasive (white bars) abilities of MCF10A cells as assessed in Boyden chamber assays. (D-1 to D-3) IL-17 increases the number of CD24^low CD44^high stem cells in MCF10A cells. Flow cytometry assay showing CD24 and CD44 expression in untreated (NT) and IL-17-treated MCF10A cells (IL-17). Decreased CD24 and increased CD44 expression is indicative of normal stem cells. Red box indicates the stem cell population.
# For transwell migration assay, 5·10^4 cells were plated in the top chamber with the non-coated membrane (24-well insert; pore size, […]; BD Biosciences). For invasion assay, 5·10^4 cells were plated in the top chamber with Matrigel-coated membrane (24-well insert; pore size, […]; BD Biosciences). In both assays, cells were plated in 1% serum medium, and 10% serum medium was used as a chemo-attractant in the lower chamber. The cells were incubated for 24 h. Cells that reached the lower chamber were stained with Giemsa and counted. Total number of migrating/invading cell was calculated by analyzing 5 fields per well in two independent experiments, that is 10 fields per condition.
# [7] = test system: SLE patients; conditions: cited from earlier work
molecule,measurement,setting,value
COc1cccc2c1C(=O)c1c(O)c3c(c(O)c1C2=O)C[C@@](O)(C(=O)CO)C[C@@H]3O[C@H]1C[C@H](N)[C@H](O)[C@H](C)O1 [doxorubicin],doxorubicin-induced apoptosis of B cell clones,[1],remarkably resistant
AIN 457: human anti-IL-17 monoclonal antibody (Novartis),patients in whom treatment was effective,"[2]; Rheumatoid Arthritis, 27% of patients who received placebo",46%
same,safety / tolerability in RA patients,[2]; patients with RA,safe
"IL-17: recombinant IL-17 (PeproTech, ref 200-17)",percentage of CD24lowCD44high cancer stem cells,[3],67%
same,percentage of CD24low/CD44high stem cells,[4],71%
same,increase in invasive ability,[5],~10 fold
same,increase in migratory ability,[5],~8 fold
same,increase in ability to migrate in transwell migration assay,"[6]; IL-17 10 ng/mL, 9 days (FIG. 16C, black bars)",~16 fold
same,increase in invasive ability in Matrigel invasion assay,"[6]; IL-17 10 ng/mL, 9 days (FIG. 16C, white bars)",~10 fold
TNFα,increase in cell invasion,[6],no
same,increase in cell migration,[6],no
"TGFβ: recombinant TGFβ (PeproTech, 100-21)",increase in cell invasion,[6],weak
same,increase in cell migration,[6],weak
LY2439821: humanized monoclonal antibody against IL-17A (Eli Lilly),efficacy compared to placebo,"[2]; intravenous, certain doses, RA patients",statistically significantly more effective
Belimumab: humanized anti-BAFF antibody,biological activity in SLE patients,[7],biologically active
same,tolerability in SLE patients,[7],well tolerated
